In patent US20200277246A1, “TREATMENT METHOD, COMPOUNDS, AND METHOD OF INCREASING TRPV2 ACTIVITY” (THE FEINSTEIN INSTITUTE FOR MEDICAL RESEARCH, priority 2015, published 2020):
Where “and” joins values, the source holds several entries; their conditions need not be identical. Equal entries are not always repeated.

How the values were obtained:
Trpv2 [1] = details: cited from earlier work
MMP-2 = assay: IL-1β-induced MMP-2 expression (qPCR) in RA FLS; type: cell-based, human; details: IL-1β 10 ng/ml 48 hours, 10 μM, n=6 RA
Method: The qPCR conditions used have been previously described (Laragione et al., “Cia5d Regulates a New Fibroblast-Like Synoviocyte Invasion-Associated Gene Expression Signature,” Arthritis Res. Ther. 10 (4):R92 (2008), which is hereby incorporated by reference in its entirety). Briefly, total RNA (200 ng) from each sample was reverse transcribed using Superscript III (Invitrogen). MMP-2 (forward-[…] (SEQ ID NO: 1); reverse-GGTATCCATCGCCATGCT (SEQ ID NO: 2) and MMP-3 (forward-CCAGGTGTGGAGTTCCTGA (SEQ ID NO: 3); reverse-[…] (SEQ ID NO: 4)) primers were designed based on the Universal ProbeLibrary (Roche, Indianapolis, Ind.). Reactions were prepared with Absolute Blue qPCR Mix (Thermo Fisher, Waltham, Mass.), and run in duplicate on a LightCycler 480 thermocycler (Roche) using Relative Quantitative Software (Roche). Ct (threshold cycle) values were adjusted for GAPDH in each sample (ΔCt). Fold differences were calculated with the 2^−ΔΔCt method (Livak et al., “Analysis of Relative Gene Expression Data Using Real-Time Quantitative PCR and the 2(-Delta Delta C(T)) Method,” Methods 25 (4):402-408 (2001), which is hereby incorporated by reference in its entirety).

Trpv1 = Trpv1 (Homo sapiens, UniProt Q8NER1); details: cited from earlier work
Sequence of Trpv1 (Q8NER1 whole entry, species assumed): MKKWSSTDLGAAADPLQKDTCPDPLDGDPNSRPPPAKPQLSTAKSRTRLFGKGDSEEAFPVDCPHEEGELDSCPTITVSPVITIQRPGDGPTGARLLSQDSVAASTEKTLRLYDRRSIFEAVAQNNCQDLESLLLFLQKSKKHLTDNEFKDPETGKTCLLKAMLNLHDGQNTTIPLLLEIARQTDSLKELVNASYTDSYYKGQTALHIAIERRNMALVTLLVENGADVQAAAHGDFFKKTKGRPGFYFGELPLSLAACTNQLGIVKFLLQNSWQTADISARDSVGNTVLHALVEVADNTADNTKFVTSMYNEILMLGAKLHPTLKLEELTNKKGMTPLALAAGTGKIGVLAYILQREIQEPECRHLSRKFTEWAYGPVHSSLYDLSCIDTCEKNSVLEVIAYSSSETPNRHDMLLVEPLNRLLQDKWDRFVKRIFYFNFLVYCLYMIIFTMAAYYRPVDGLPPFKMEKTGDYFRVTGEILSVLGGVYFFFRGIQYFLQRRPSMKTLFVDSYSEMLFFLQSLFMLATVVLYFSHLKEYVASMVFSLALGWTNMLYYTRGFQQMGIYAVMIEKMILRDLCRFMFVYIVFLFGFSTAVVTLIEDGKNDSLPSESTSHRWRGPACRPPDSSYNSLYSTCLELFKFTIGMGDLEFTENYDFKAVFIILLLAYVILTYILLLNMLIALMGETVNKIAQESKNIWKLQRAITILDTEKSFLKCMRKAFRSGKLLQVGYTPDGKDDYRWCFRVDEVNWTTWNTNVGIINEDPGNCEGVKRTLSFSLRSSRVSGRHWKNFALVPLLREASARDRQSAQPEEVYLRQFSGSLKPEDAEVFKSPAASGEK

phosphorylated Akt = assay: FLS levels of phosphorylated Akt; type: cell-based
FLS = assay: MTT assay; type: cell-based; details: 24 hours, concentrations of the invasion studies
Method: 4×10^4 FLS per well were plated in triplicate in 96-well plates in 100 μl of complete media. Cells were allowed to adhere for 24 hours. Media was then changed and O1821, LER13, or vehicle was added at the same concentrations used for the invasion studies. After 24 hours (same duration of the invasion experiments) viable cells were determined by the colorimetric MTT kit (Millipore) according to the manufacturer's instructions.

Trpv2 [2] = target: T1, Trpv2 (Rattus norvegicus, UniProt Q9WUD2); assay: Single cell patch clamp of DA FLS; type: cell-based; set-up: endogenous in cells; host or cells: FLS from DA rats with pristane-induced arthritis; details: perfusion with 30 μM
T1 sequence (Q9WUD2 1-761): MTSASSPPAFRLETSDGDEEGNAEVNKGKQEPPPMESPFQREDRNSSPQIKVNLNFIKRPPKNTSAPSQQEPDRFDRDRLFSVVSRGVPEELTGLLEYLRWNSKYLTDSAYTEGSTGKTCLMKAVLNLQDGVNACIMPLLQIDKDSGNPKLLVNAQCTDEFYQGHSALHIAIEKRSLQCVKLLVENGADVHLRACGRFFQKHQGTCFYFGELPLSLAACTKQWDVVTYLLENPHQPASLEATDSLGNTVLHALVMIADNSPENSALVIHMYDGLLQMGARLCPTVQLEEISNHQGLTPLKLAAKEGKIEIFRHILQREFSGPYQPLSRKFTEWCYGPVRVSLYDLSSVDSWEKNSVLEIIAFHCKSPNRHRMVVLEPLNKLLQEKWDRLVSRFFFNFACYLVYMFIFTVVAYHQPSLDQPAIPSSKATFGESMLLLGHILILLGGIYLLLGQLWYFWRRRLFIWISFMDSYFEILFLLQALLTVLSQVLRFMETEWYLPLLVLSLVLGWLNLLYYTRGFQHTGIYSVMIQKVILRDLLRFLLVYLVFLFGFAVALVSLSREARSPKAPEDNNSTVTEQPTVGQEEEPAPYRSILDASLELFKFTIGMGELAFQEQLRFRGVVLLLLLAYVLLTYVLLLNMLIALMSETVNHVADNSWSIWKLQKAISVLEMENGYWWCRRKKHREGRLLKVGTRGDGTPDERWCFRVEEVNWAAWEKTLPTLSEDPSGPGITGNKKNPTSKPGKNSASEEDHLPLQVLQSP
Method: FLS obtained from DA rats with PIA were plated in culture medium onto glass coverslips and allowed to adhere at 37° C. Recordings were performed in the whole-cell configuration of the patch-clamp technique at room temperature using an EPC10-USB amplifier (HEKA instruments, Bellmore, N.Y.). […] The bath solution contained 132 mM NaCl, 5.4 mM KCl, 1.8 mM CaCl2, 0.8 mM MgCl2, 10 mM HEPES, and 10 mM glucose, at pH 7.4. O1821-activated currents were elicited with a 600 ms ramp from −100 to +100 mV from a holding potential of −107 mV. Addition of O1821 was accomplished by complete bath exchange.

For `C=C(C)[C@@H]1CCC(C)=C[C@H]1c1c(O)cc(C)cc1O` [Compound O1821], the “Stimulation of Trpv2” value (Trpv2 [1]) is given as “stimulates”, the “Decrease of IL-1β-induced MMP-2 expression” value (MMP-2) is given as 45.6% and 50% and the “Stimulation of Trpv1” value (Trpv1) is given as “does not stimulate”. The “Levels of phosphorylated Akt” value (phosphorylated Akt) was “did not affect”, the “Toxicity to FLS (cell mortality)” value (FLS) was “not toxic” and the Trpv2 channel current (Trpv2 [2]) was “induced channel opening”.
